Reference: ChEMBL document CHEMBL4402530, “New dimensions in the field of antimalarial research against malaria resurgence” (Eur J Med Chem, 2019)

Tests used:
[1] = system: Plasmodium falciparum; assay: Antiparasitic activity against Plasmodium falciparum D6; type: functional, organism-based
[2] = system: Plasmodium falciparum; assay: Antiparasitic activity against Plasmodium falciparum 3D7; type: functional, organism-based
[3] = system: Plasmodium falciparum; assay: Antiparasitic activity against Plasmodium falciparum infected in human PBMC; type: functional, organism-based
[4] = system: Plasmodium falciparum; assay: Antiparasitic activity against Plasmodium falciparum infected in mouse; type: functional
[5] = system: Plasmodium falciparum; assay: Antiparasitic activity against Plasmodium falciparum infected in SCID mouse; type: functional
[6] = system: Plasmodium falciparum; assay: Antiparasitic activity against Plasmodium falciparum; type: functional, organism-based
[7] = system: Plasmodium falciparum; assay: Antiparasitic activity against Plasmodium falciparum W2; type: functional, organism-based
[8] = system: Plasmodium falciparum; assay: Antiparasitic activity against Plasmodium falciparum TM91C235; type: functional, organism-based
[9] = system: Plasmodium falciparum; assay: Antiparasitic activity against Plasmodium falciparum […]; type: functional, organism-based
[10] = system: Plasmodium falciparum; assay: Antiparasitic activity against Plasmodium falciparum infected in human HepG2 cells; type: functional, organism-based
[11] = Selectivity index, ratio of IC50 for African green Monkey BGM cells to IC50 for chloroquine-resistant Plasmodium falciparum W2; type: toxicity; details: read-out: Selectivity Index
[12] = system: Plasmodium falciparum; assay: Antiparasitic activity against chloroquine-resistant Plasmodium falciparum Dd2; type: functional, organism-based
[13] = system: Plasmodium falciparum; assay: Antiparasitic activity against Plasmodium falciparum Dd2; type: functional, organism-based
[14] = system: Plasmodium falciparum; assay: Antiparasitic activity against Plasmodium falciparum D10; type: functional, organism-based
[15] = system: Plasmodium falciparum; assay: Antiparasitic activity against Plasmodium falciparum K1; type: functional, organism-based
[16] = system: Plasmodium falciparum; assay: Antiparasitic activity against Plasmodium falciparum Tm90; type: functional, organism-based
[17] = system: Plasmodium falciparum; assay: Antiparasitic activity against Plasmodium falciparum C2B; type: functional, organism-based
[18] = system: Plasmodium berghei; assay: Antiparasitic activity against Plasmodium berghei ANKA infected in mouse assessed as mouse survival; type: functional
[19] = system: Plasmodium berghei; assay: Antiparasitic activity against Plasmodium berghei ANKA infected in CD1 mouse assessed as reduction in parasitemia; type: functional

Q: With COc1cc2[nH]c(C)c(-c3ccc(Oc4ccc(OC(F)(F)F)cc4)cc3)c(=O)c2cc1Cl as the compound, how does the EC50 [1] read?
A: The EC50 was 1.3 to 13.6 nM.

Q: What about the EC50 ([2]; Plasmodium falciparum, 3D7) of the same compound?
A: The EC50 was 1.3 to 13.6 nM.

Q: What about the EC50 [3] of the same compound?
A: Its EC50 is 1.3 to 13.6 nM.

Q: What about the ED50 [4] of the same compound?
A: Its ED50 is 0.016 mg/kg.

Q: And the ED50 [5]?
A: Its ED50 is 6 mg/kg.

Q: What about the EC50 [6] of the same compound?
A: Its EC50 is 0.58 nM.

Q: Which IC50 ([7]; Plasmodium falciparum, W2) does the source give for CC(=O)O[C@@H]1CC[C@@]2(C)[C@@H](C1)C[C@@H](OC(C)=O)[C@@H]1[C@@H]2C[C@H](OC(C)=O)[C@]2(C)[C@@H]([C@H](C)CCCNCCCNc3ccnc4cc(Cl)ccc34)CC[C@@H]12 here?
A: The IC50 was 2.63 to 13.8 nM.

Q: Which results are given for CC(=O)O[C@H]1C[C@H]2[C@@H]([C@H](OC(C)=O)C[C@@H]3C[C@H](O)CC[C@@]32C)[C@@H]2CC[C@H]([C@H](C)CCCNCCNc3ccnc4cc(Cl)ccc34)[C@@]12C?
A: IC50 ([7]; Plasmodium falciparum, W2): 2.63 to 13.8 nM; IC50 [1]: 1.35 to 14.1 nM

Q: With CC(=O)O[C@H]1C[C@H]2[C@@H]([C@H](OC(C)=O)C[C@@H]3CC(=O)CC[C@@]32C)[C@@H]2CC[C@H]([C@H](C)CCCNCCNc3ccnc4cc(Cl)ccc34)[C@@]12C as the compound, how does the IC50 ([7]; Plasmodium falciparum, W2) read?
A: Its IC50 is 2.63 to 13.8 nM.

Q: And the IC50 [1]?
A: Its IC50 is 1.35 to 14.1 nM.

Q: Which IC50 ([7]; Plasmodium falciparum, W2) does the source give for CC(=O)O[C@H]1C[C@H]2[C@@H]([C@H](OC(C)=O)C[C@@H]3CC(=O)CC[C@@]32C)[C@@H]2CC[C@H]([C@H](C)CCCNCCCNc3ccnc4cc(Cl)ccc34)[C@@]12C here?
A: Its IC50 is 2.63 to 13.8 nM.

Q: What about the IC50 [1] of the same compound?
A: Its IC50 is 1.35 to 14.1 nM.

Q: Which IC50 ([7]; Plasmodium falciparum, W2) does the source give for CC(=O)O[C@@H]1CC[C@@]2(C)[C@@H](C1)C[C@@H](OC(C)=O)[C@@H]1[C@@H]2C[C@H](OC(C)=O)[C@]2(C)[C@@H]([C@H](C)CCCN(C)CCCNc3ccnc4cc(Cl)ccc34)CC[C@@H]12 here?
A: Its IC50 is 2.63 to 13.8 nM.

Q: With CC(=O)O[C@H]1C[C@H]2[C@@H]([C@H](OC(C)=O)C[C@@H]3C[C@H](NC(=O)OC(C)(C)C)CC[C@@]32C)[C@@H]2CC[C@H]([C@H](C)CCCNCCNc3ccnc4cc(Cl)ccc34)[C@@]12C as the compound, how does the IC50 [1] read?
A: Its IC50 is 1.35 to 14.1 nM.

Q: Which IC50 ([7]; Plasmodium falciparum, W2) does the source give for CC(=O)O[C@H]1C[C@H]2[C@@H]([C@H](OC(C)=O)C[C@@H]3C[C@H](NS(C)(=O)=O)CC[C@@]32C)[C@@H]2CC[C@H]([C@H](C)CCCN(C)CCNc3ccnc4cc(Cl)ccc34)[C@@]12C here?
A: Its IC50 is 2.63 to 13.8 nM.

Q: What about the IC50 [1] of the same compound?
A: Its IC50 is 1.35 to 14.1 nM.

Q: For CC(=O)O[C@H]1C[C@H]2[C@@H]([C@H](OC(C)=O)C[C@@H]3C[C@H](NC(=O)OC(C)(C)C)CC[C@@]32C)[C@@H]2CC[C@H]([C@H](C)CCCN(C)CCNc3ccnc4cc(Cl)ccc34)[C@@]12C, which IC50 ([7]; Plasmodium falciparum, W2) is on record?
A: Its IC50 is 2.63 to 13.8 nM.

Q: With CC(=O)O[C@H]1C[C@H]2[C@@H]([C@H](OC(C)=O)C[C@@H]3C[C@H](N)CC[C@@]32C)[C@@H]2CC[C@H]([C@H](C)CCCN(C)CCNc3ccnc4cc(Cl)ccc34)[C@@]12C as the compound, how does the IC50 ([7]; Plasmodium falciparum, W2) read?
A: The IC50 was 3.74 nM.

Q: And the IC50 [1]?
A: Its IC50 is 4.46 nM.

Q: What about the IC50 [8] of the same compound?
A: The IC50 was 9.2 nM.

Q: What about the IC50 [9] of the same compound?
A: The IC50 was 1140 nM.

Q: What about the IC50 [10] of the same compound?
A: The IC50 was greater than 1000 nM.

Q: What about the IC50 [3] of the same compound?
A: The IC50 was greater than 1000 nM.

Q: Which IC50 [1] does the source give for CC(=O)O[C@H]1C[C@H]2[C@@H]([C@H](OC(C)=O)C[C@@H]3C[C@H](N(C)C)CC[C@@]32C)[C@@H]2CC[C@H]([C@H](C)CCCN(C)CCNc3ccnc4cc(Cl)ccc34)[C@@]12C here?
A: The IC50 was 2.63 nM.

Q: And the IC50 [8]?
A: The IC50 was 3.32 nM.

Q: And the IC50 [9]?
A: Its IC50 is 2270 nM.

Q: With COc1cc2[nH]c(C)c(-c3ccc(Oc4ccc(OC(F)(F)F)cc4)cc3F)c(=O)c2cc1Cl as the compound, how does the EC50 [1] read?
A: The EC50 was 3.18 to 32.3 nM.

Q: What about the EC50 ([2]; Plasmodium falciparum, 3D7) of the same compound?
A: The EC50 was 3.18 to 32.3 nM.

Q: And the EC50 [3]?
A: The EC50 was 3.18 to 32.3 nM.

Q: And the ED50 [4]?
A: The ED50 was 0.3 mg/kg.

Q: What about the EC50 [6] of the same compound?
A: The EC50 was 1.06 nM.

Q: Which selectivity ratio [11] does the source give for O=Cc1cn(-c2ccnc3cc(Cl)ccc23)nn1 here?
A: Its selectivity ratio is 351.

Q: With NS(=O)(=O)c1cccc(-n2cc(CCNc3ccnc4cc(Cl)ccc34)nn2)c1 as the compound, how does the IC50 [12] read?
A: The IC50 was 600 nM.

Q: And the IC50 ([2]; Plasmodium falciparum, 3D7)?
A: The IC50 was 600 nM.

Q: For CC(C)=CC(=O)O[C@@H]1C[C@@]2(C)[C@@H](C=C1C)O[C@@H]1[C@H](O)[C@@H](O)[C@@]2(C)[C@]12CO2, which IC50 [7] is on record?
A: The IC50 was 370 nM.

Q: And the IC50 [2]?
A: The IC50 was 29 nM.

Q: What does the source list for CC(CCNc1ccnc2cc(Cl)ccc12)NCCO[C@H]1O[C@@H]2O[C@@]3(C)CC[C@H]4[C@H](C)CC[C@@H]([C@H]1C)[C@@]24OO3 (stereo partly drawn)?
A: IC50 [13]: 12.2 nM; IC50 [14]: 17.1 nM

Q: With NS(=O)(=O)c1ccc(-n2cc(CCCNc3ccnc4cc(Cl)ccc34)nn2)cc1 as the compound, how does the IC50 [12] read?
A: Its IC50 is 600 nM.

Q: And the IC50 ([2]; Plasmodium falciparum, 3D7)?
A: Its IC50 is 600 nM.

Q: What does the source list for NS(=O)(=O)c1ccc(-n2cc(CNc3ccnc4cc(Cl)ccc34)nn2)cc1?
A: IC50 [12]: 600 nM; IC50 ([2]; Plasmodium falciparum, 3D7): 600 nM

Q: Which IC50 [15] does the source give for O=C(N/N=C/c1ccc(Br)cc1)C(=O)Nc1ccc(Nc2ccnc3cc(Cl)ccc23)cc1 here?
A: The IC50 was 52 nM.

Q: What about the IC50 ([2]; Plasmodium falciparum, 3D7) of the same compound?
A: The IC50 was 19.7 nM.

Q: Which results are given for CCCCCCCc1c(C)nc2cc(F)cc(F)c2c1OC(=O)OCCOCCOCCOCCOC?
A: IC50 [1]: 0.05 nM; IC50 [13]: 0.4 nM; IC50 [16]: 81 nM; IC50 [17]: 146 nM

Q: For CC(C)(C)c1ccc(/C=N/NC(=O)C(=O)Nc2ccc(Nc3ccnc4cc(Cl)ccc34)cc2)cc1, which IC50 [15] is on record?
A: The IC50 was 52 nM.

Q: And the IC50 ([2]; Plasmodium falciparum, 3D7)?
A: Its IC50 is 19.7 nM.

Q: Which EC50 [12] does the source give for OC(CN1CCC2(CC1)CC(O)c1ccc3ccccc3c1O2)c1ccc(F)c(F)c1 (stereo not drawn) here?
A: Its EC50 is 350 nM.

Q: And the Survival [18]?
A: The Survival was greater than 1.7 days.

Q: For CC(C)(C)NCc1cc(Nc2ccnc3cc(Cl)ccc23)ccc1F, which ED50 [19] is on record?
A: Its ED50 is 5.3 mg/kg.

Q: With NS(=O)(=O)c1ccc(-n2cc(CCNc3ccnc4cc(Cl)ccc34)nn2)cc1 as the compound, how does the IC50 [12] read?
A: Its IC50 is 600 nM.

Q: What about the IC50 ([2]; Plasmodium falciparum, 3D7) of the same compound?
A: The IC50 was 600 nM.

Q: For NS(=O)(=O)c1cccc(-n2cc(CNc3ccnc4cc(Cl)ccc34)nn2)c1, which IC50 [12] is on record?
A: Its IC50 is 600 nM.

Q: And the IC50 ([2]; Plasmodium falciparum, 3D7)?
A: Its IC50 is 600 nM.

Q: For COc1cc(NC(C)CCCNCc2ccc(CO[C@H]3O[C@@H]4O[C@@]5(C)CC[C@H]6[C@H](C)CC[C@@H]([C@H]3C)[C@@]46OO5)cc2)c2ncccc2c1 (stereo partly drawn), which IC50 ([7]; Plasmodium falciparum, W2) is on record?
A: The IC50 was 112 nM.

Q: Which IC50 [1] does the source give for Cc1[nH]c2cc(F)cc(F)c2c(=O)c1CCCCCCCl here?
A: Its IC50 is 0.05 nM.

Q: And the IC50 [13]?
A: The IC50 was 0.4 nM.

Q: And the IC50 [16]?
A: The IC50 was 81 nM.

Q: What about the IC50 [17] of the same compound?
A: Its IC50 is 146 nM.

Q: Which IC50 [12] does the source give for NS(=O)(=O)c1cccc(-n2cc(CCCNc3ccnc4cc(Cl)ccc34)nn2)c1 here?
A: Its IC50 is 600 nM.

Q: What about the IC50 ([2]; Plasmodium falciparum, 3D7) of the same compound?
A: The IC50 was 600 nM.

Q: Which IC50 [1] does the source give for O[C@@H](c1cc(C(F)(F)F)nc2c(C(F)(F)F)cccc12)[C@H]1CCCCN1 [(S,R)-MEFLOQUINE] here?
A: The IC50 was 15.2 nM.

Q: For C[C@H]1Cc2c([nH]c3cc(Cl)c(F)cc23)[C@@]2(N1)C(=O)Nc1ccc(Cl)cc12 [CIPARGAMIN], which ED50 [4] is on record?
A: Its ED50 is 1 mg/kg.

Q: What about the ED90 [4] of the same compound?
A: Its ED90 is 3 mg/kg.

Q: And the ED99 [4]?
A: The ED99 was 5 mg/kg.

Q: Which IC50 ([7]; Plasmodium falciparum, W2) does the source give for CC(C)c1cc2c(cc1O)[C@@]1(C)CCCC(C)(C)[C@@H]1CC2 [FERRUGINOL] here?
A: The IC50 was 0.9 to 4.2 mg/L.

Q: What about the IC50 [1] of the same compound?
A: Its IC50 is 0.9 to 4.2 mg/L.

Q: And the IC50 [15]?
A: Its IC50 is 0.9 to 4.2 mg/L.

Q: What about the IC50 [14] of the same compound?
A: Its IC50 is 0.9 to 4.2 mg/L.
